Assay results taken from patent US11400019B2, “Sustained release drug delivery systems with reduced impurities and related methods” (DURECT CORPORATION, priority 2020, dated 2022).
Values joined by “and” are separate entries in the source; they are usually repeats but may differ in a detail not shown here. Identical values can stand only once. Blank lines part the entries; values can stand above or below the molecule they belong to.

Assays:
Type in all cases: physicochemical
[1] = 2,6-dimethylaniline standard in clear, amber and red glassware, HPLC with electrochemical detection
Experimental: A series of experiments was conducted examining the effects of amber and red colored glassware on the stability of the 2,6-dimethylaniline reference standard, using electrochemical detection, at a concentration of 3 ng/mL in an aqueous buffer/methanol solution.
In Experiment 1, the 2,6-dimethylaniline was prepared at a concentration of 3 ng/mL in a clear, colorless glass 100 mL volumetric flask. Aliquots were transferred into clear HPLC glass vials, and assayed against external standards. The 3 injections of the 2,6-dimethylaniline were consistently near 3 ng/mL.
In Experiment 2, the 2,6-dimethylaniline solution at 3 ng/mL prepared in a clear, colorless glass 100 mL volumetric flask was transferred to amber HPLC vials.
An aliquot was transferred into a clear HPLC glass vial, and assayed against external standards. The sample injection had the same 2,6-dimethylaniline concentration value as that in Experiment 1.
In Experiment 4, the 2,6-dimethylaniline solution at 3 ng/mL prepared in the red colored glass 100 mL volumetric flask coated with RAY-SORB® was transferred to an amber HPLC vial.

[2] = In vitro cumulative release of bupivacaine, USP Apparatus II dissolution, f1/f2 comparison; settings: pre-heated in oven at 225° C. for 4 hours
Experimental: The in vitro cumulative release of bupivacaine from formulations was determined as follows.
The bupivacaine formulations, other than the heat-stressed formulation, were prepared by dissolving appropriate amounts of bupivacaine in appropriate amounts of benzyl alcohol (BA), adding an appropriate amount of sucrose acetate isobutyrate (SAIB), and stirring not less than 45 minutes at about 35° C. For the heat-stressed SAIB formulation, the same process was followed except the SAIB was pre-heated in an oven at 225° C. for 4 hours before use. A portion of the pre-heated SAIB was tested and found to have 98% SAIB remaining.
Dissolution was measured using a USP Apparatus II. Approximately 0.5 mL of each formulation was loaded via cannula and syringed into 900 mL±5 mL of 37±0.5° C. dissolution media (phosphate buffer at pH 7.4±0.05 with 0.03% sodium lauryl sulfate). The USP Apparatus II was set at 50 RPM, and samples were collected at 1, 4, 8, 12, 18, 24, 36, 48, and 72 hours. The number of replicates (N) per sample per time point varied as described above. The collected samples were assayed for bupivacaine content by HPLC.
The dissolution profile comparisons were conducted using a difference factor (f1) and a similarity factor (f2) approach (FDA Guidance for Industry “Dissolution Testing of Immediate Release Solid Oral Dosage Forms” August 1997). […]

Metal content by ICP-MS = experiment: Metal content by ICP-MS
Experimental: Sucrose acetate isobutyrate was tested for metal content as follows. The sample was prepared with a 0.1 g weighed portion mixed with 2 mL nitric acid and 0.5 mL hydrochloric acid for 1 hour on a block digester set at 110° C. After cooling, 0.5 mL of 30% hydrogen peroxide was added, and the digestion resumed for 30 minutes (the material appeared dissolved). After cooling, internal standard solution was added and dilution with purified water to 20 g produced a solution for ICP-MS analysis.
Formulation A was compounded using steel compounding tanks. Silicone tubing was used to transfer Formulation A. Formulation A was filled into glass vials, which were then sealed with fluorocarbon-coated stoppers.
Formulation A was tested for metal content as follows. The sample was prepared with a 0.2 g weighed portion mixed with 2 mL nitric acid, 1 mL hydrochloric acid, and 1 mL hydrofluoric acid, then digested in a closed-vessel microwave system (the material appeared dissolved). After cooling, internal standard solution was added and dilution with purified water to 50 g produced a solution for ICP-MS analysis.

[3] = Peroxide content of SAIB and benzyl alcohol versus bupivacaine N-oxide
Experimental: The peroxide content for several lots of sucrose acetate isobutyrate were determined by potentiometric titration involving iodometric titration. The bupivacaine N-oxide levels in samples of Formulation A were determined using HPLC with UV detection.
The bupivacaine N-oxide data in Table 10.1 are for the longest available stability time points for each set of samples.
All of the benzyl alcohol compositions had peroxide values of less than […]. The peroxide value can be converted to peroxide content, expressed as hydrogen peroxide, by multiplying PV by 17. […] The maximum contribution to peroxide content from benzyl alcohol is 85 ppm divided by 3, or 28 ppm.

Molecule: Cc1cccc(C)c1N [2,6-dimethylaniline]
Observed Concentration of Standard ([1]; Experiment 1: clear flask, clear HPLC vial, nominal 3 ng/mL): ~3 ng/mL | Observed Concentration of Standard ([1]; Experiment 1: clear flask, clear HPLC vial, nominal 3 ng/mL, listed as 2,6-Dimethlylaniline Standard): 3.0 ng/mL and 3.1 ng/mL | Observed Concentration of Standard ([1]; Experiment 2: clear flask, amber HPLC vial, listed as 2,6-Dimethlylaniline Standard): 24.5 ng/mL and 28.4 ng/mL and 34.6 ng/mL and 38.1 ng/mL | Observed Concentration of Standard ([1]; Experiment 3: red RAY-SORB flask, clear HPLC vial): 3.0 ng/mL | 2,6-dimethylaniline content, times higher than Experiments 1 and 3 ([1]; Experiment 4, amber HPLC vial): approximately 5 times | Observed Concentration of Standard ([1]; Experiment 4: red flask, amber HPLC vial): 14.9 ng/mL

SAIB remaining [2]: 98% | Gold content (Metal content by ICP-MS; detection limit 0.02): 0.4 ppm | Tin content (Metal content by ICP-MS; detection limit 0.04): 0.06 ppm | Iron content (Metal content by ICP-MS; detection limit 1): 2 ppm | peroxide in SAIB corresponding to 0.8% bupivacaine N-oxide ([3]; linear regression, FIG. 2): 232.5 ppm | peroxide in SAIB corresponding to 1.0% bupivacaine N-oxide ([3]; linear regression, FIG. 2): 296.4 ppm
Molecule: sucrose acetate isobutyrate [SAIB]

effective peroxide contribution to formation of bupivacaine N-oxide ([3]; 8.5 ppm divided by 3): < 2.8 ppm | peroxide content, expressed as hydrogen peroxide ([3]; PV multiplied by 17): < 8.5 ppm | peroxide value (PV) ([3]; all lots used for Formulation A samples): less than 0.5
Molecule: OCc1ccccc1 [benzyl alcohol]
